From publication PMC9007350, “Aurintricarboxylic acid is a canonical disruptor of the TAZ-TEAD transcriptional complex” (PLoS ONE, 2022)

How the values were obtained:
[1] = molecular target: T1, YAP/TAZ-binding domain of human TEAD4 (217-434), deacylated (Homo sapiens, UniProt Q15561); assay: Surface plasmon resonance; settings: one-site binding fit of steady-state response versus concentration; read-out: Kd, affinity between TEAD and ATA
T1 construct: made in house
Method: The YAP/TAZ-binding domain of human TEAD4 (217–434) was deacylated and resuspended in 10 mM acetate buffer pH 5.0. TEAD was immobilized on a CM5 sensor chip (Cytiva, product, BR100530) using the amine coupling kit (Cytiva, product, BR10050) as per manufacturer’s guidelines. Various concentrations of ATA were dissolved in buffer containing 20 mM Tris pH 8.0, 150 mM NaCl, 1.5% DMSO and passed over the reference cell and the cell containing immobilized TEAD, and the resonance responses were recorded.

[2] = system: NIH3T3 cells expressing TAZ-CAMTA1; assay: Soft agar colony growth assay, TAZ-CAMTA1; format: cell-based
Method: (§1) Soft agar colony growth assay was performed as previously described. The colonies were counted using Image-Pro Plus 7.0 software (Media Cybernetics). ATA cytotoxicity was assessed using the CyQUANT LDH Cytotoxicity Assay Kit (ThermoFisher) and was performed as per the manufacturer’s protocol.

TEAD4 = molecular target: T2, TEAD4 (Homo sapiens, UniProt Q15561); assay: ThermoFluor assay, TEAD; format: binding; settings: protein 5 μM
T2 construct: ThermoFluor assays measuring the melting temperatures (Tm) of full-length TAZ or TEAD in the presence of ATA; strep (N, cleaved yes); made in house; host or cells: Escherichia coli BL21(DE3)pLysS
Method: (§2) To assess changes in protein stability, a dye-based thermal melting assay (ThermoFluor) was used. Purified protein (TAZ or TEAD4), ATA, and Protein Thermal Shift dye (ThermoFisher) were mixed in 96-well plates. The final concentration of the protein was 5 μM. The melting temperature was measured using LightCycler 480 (Roche). Each experiment was repeated at least twice.

[3] = molecular target: T3, TAZ-TEAD complex (full-length His-TAZ and FLAG-TEAD4) (Homo sapiens, UniProt Q15561); assay: TAZ-TEAD AlphaLISA assay; format: binding; settings: 10 nM TAZ, 15 nM TEAD4
T3 construct: human TEAD4 (1–434) (UniProt—Q15561); strep (N, cleaved yes); made in house; host or cells: Escherichia coli BL21(DE3)pLysS
Excerpt: The cDNAs of human TEAD4 (1–434) (UniProt—Q15561) and TAZ (UniProt—Q9GZV5) were codon-optimized according to a proprietary algorithm developed by DAPCEL, Inc, synthesized, and inserted into the pET-3a vector between restriction sites NdeI and BamHI (GenScript). The final construct contained a N-terminal strep-TEV-FLAG tag for TEAD4, a 6x His tag at the N-terminus and a strep tag at the C-terminus of TAZ (GenScript).
Full-length TAZ and TEAD proteins were used in this assay. The codon-optimized cDNAs yielded sufficient protein amounts to carry out the high-throughput screen (S1A Fig).
Purified full-length His-TAZ and FLAG-TEAD4 proteins were mixed with nickel chelate AlphaLISA Acceptor Beads and anti-FLAG Alpha Donor Beads (PerkinElmer) in alpha assay buffer (10mM Tris pH 8.0, 150mM NaCl, 0.1% BSA, 0.01% Tween 20, 10 mM DTT). To determine the optimum protein concentration that produced the highest total signal intensity, His-TAZ was used at a concentration range of 0 nM to 20 nM and FLAG-TEAD4 at 0.1 nM to 1000 nM. The maximal signal occurred at 10 nM TAZ and 15 nM TEAD4 (S1B Fig). Then, compounds from the library plates were added at a final concentration of 10 μM. The mixtures were incubated in the dark for 2h at room temperature and emission at 615 nm was measured using the alpha-compatible EnSpire (PerkinElmer) and Synergy Neo2 (BioTek) multimode plate readers. […]

[4] = system: NIH3T3 cells expressing NRAS G12V; assay: Soft agar colony growth assay, NRAS G12V; format: cell-based
Method: as §1

TAZ = molecular target: T4, TAZ (Homo sapiens, UniProt Q9GZV5); assay: ThermoFluor assay, TAZ; format: binding; settings: full-length TAZ, protein 5 μM
T4 construct: ThermoFluor assays measuring the melting temperatures (Tm) of full-length TAZ or TEAD in the presence of ATA; strep (C); made in house; host or cells: Escherichia coli BL21(DE3)pLysS
Method: as §2

[5] = system: TC/TEAD transcriptional activity in HEK293 cells expressing TAZ-CAMTA1; assay: TC/TEAD dual luciferase reporter assay; format: cell-based; settings: ATA 10 μM, 48 h
Method: NIH3T3 and HEK293 cells were obtained from the American Type Tissue Collection (ATCC, Manassas, VA) and cultured in DMEM containing 10% fetal bovine serum and penicillin/streptomycin. A TEAD dual luciferase reporter assay was performed as previously described. Cells were treated with vehicle control or ATA (10 μM) for 48 h before measuring the luciferase activity or processing the samples for RNA extraction. Each experiment was repeated at least 2–3 times.

[6] = molecular target: T5, YAP-TEAD complex (human YAP (61-100) probe, human TEAD4 (217-434)) (Homo sapiens, UniProt Q15561); assay: YAP-TEAD fluorescence polarization assay; format: binding; settings: TEAD4 350 nM, YAP probe 25 nM; read-out: IC50, YAP-TEAD FP assay
T5 construct: made in house
Method: (§3) Human YAP (61–100), human TAZ (23–57) and mouse Vgll1 (26–51) peptide probes were used; all the probes had carboxyfluorescein labels. Human TEAD4 (217–434) was used in the assay at a concentration of 350 nM and the peptide probe concentration was 25 nM. Disruptors were titrated at concentrations ranging from 0–150 μM to the probe-TEAD complex, and the mixtures were incubated at 25°C for 20 min. Then, polarization measurements were taken using a Victor3 (PerkinElmer) plate reader.

[7] = molecular target: T6, VGLL1-TEAD complex (mouse Vgll1 (26-51) probe, human TEAD4 (217-434)) (Homo sapiens, UniProt Q15561); assay: Vgll1-TEAD fluorescence polarization assay; format: binding; settings: TEAD4 350 nM, Vgll1 probe 25 nM
T6 construct: made in house
Method: as §3

T2 sequence (Q15561 whole entry): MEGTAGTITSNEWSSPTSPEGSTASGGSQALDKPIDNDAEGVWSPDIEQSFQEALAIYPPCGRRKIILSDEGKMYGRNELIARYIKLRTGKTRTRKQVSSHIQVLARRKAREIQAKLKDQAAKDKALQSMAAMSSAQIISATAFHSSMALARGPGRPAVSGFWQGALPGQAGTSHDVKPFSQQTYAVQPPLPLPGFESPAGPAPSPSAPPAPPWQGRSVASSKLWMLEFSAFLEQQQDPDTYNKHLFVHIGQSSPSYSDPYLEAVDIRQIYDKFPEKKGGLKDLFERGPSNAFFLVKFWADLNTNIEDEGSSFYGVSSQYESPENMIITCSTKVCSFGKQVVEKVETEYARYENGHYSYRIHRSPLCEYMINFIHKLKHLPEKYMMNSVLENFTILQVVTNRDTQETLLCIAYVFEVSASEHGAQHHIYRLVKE
T3 sequence (Q15561 whole entry, one chain of several): as the sequence (Q15561 whole entry) above
T4 sequence (Q9GZV5 whole entry): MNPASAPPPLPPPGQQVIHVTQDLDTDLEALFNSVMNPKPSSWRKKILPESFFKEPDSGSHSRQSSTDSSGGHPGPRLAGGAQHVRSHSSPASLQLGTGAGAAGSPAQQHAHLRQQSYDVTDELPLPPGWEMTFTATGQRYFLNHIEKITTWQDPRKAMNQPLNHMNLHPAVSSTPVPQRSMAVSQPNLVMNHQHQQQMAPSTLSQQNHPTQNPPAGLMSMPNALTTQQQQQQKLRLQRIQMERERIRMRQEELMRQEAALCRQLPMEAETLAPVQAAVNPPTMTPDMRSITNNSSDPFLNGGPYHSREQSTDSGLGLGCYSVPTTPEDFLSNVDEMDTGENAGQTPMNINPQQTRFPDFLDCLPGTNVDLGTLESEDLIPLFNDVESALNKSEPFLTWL
T5 sequence (Q15561 217-434, one chain of several): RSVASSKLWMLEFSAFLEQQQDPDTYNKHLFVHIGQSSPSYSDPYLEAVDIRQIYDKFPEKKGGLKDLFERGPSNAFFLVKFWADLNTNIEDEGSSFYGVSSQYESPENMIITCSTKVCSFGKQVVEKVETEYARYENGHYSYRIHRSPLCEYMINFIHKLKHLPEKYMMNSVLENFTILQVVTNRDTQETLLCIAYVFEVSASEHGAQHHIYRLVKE
T1 sequence (Q15561 217-434): as the sequence (Q15561 217-434, one chain of several) above
T6 sequence (Q15561 217-434, one chain of several): as above

O=C(O)C1=CC(=C(c2ccc(O)c(C(=O)O)c2)c2ccc(O)c(C(=O)O)c2)C=CC1=O [ATA, aurintricarboxylic acid]
Kd [1]: 3 µM
TC-driven soft agar colony growth [2]: dose-dependent reduction
shift in Tm in the ThermoFluor assay (in words) (TEAD4; TAZ or TEAD): increased the Tm
melting temperature (Tm) of TEAD + ATA (TEAD4; full-length TEAD): 54.8 °C
IC50 [3]: 0.035 µM
NRAS G12V-induced soft agar growth [4]: unaffected
melting temperature (Tm) of TAZ + ATA (TAZ): 53.1 °C
TC-dependent increase of TEAD luciferase reporter activity [5]: significantly reduced
IC50 [6]: 160 µM
disruption of the VGLL1-TEAD interaction (in words) [7]: ineffective
